What all share (format): biochemical
For one experiment, the target named is T1, yeast α-glucosidase (Saccharomyces cerevisiae, UniProt P53341).
T1 construct: purchased Sigma
Description: α-Glucosidase inhibition assay, pH 7.4. The settings on record: read-out: ALPHA GLUCOSIDASE inhibition; for inhibition at 1000 µM: @ 1 mM; for inhibition at 5000 µM: @ 5 mM. As to the method: (§1) The glycosidase inhibition activity is determined by modifying an assay procedure described in Evans et al, Phytochemistry, 22, pp. 768-770 (1983). More particularly, yeast α-glucosidase and almond β-glucosidase activities were measured by the Evans et al method which was modified by assaying activities at pH 7.4 in N-2-hydroxyethylpiperazine-N-2-ethane sulfonic acid (HEPES) buffer, measuring in 96 well microtiter plates, and including 10% DMSO in control and test samples.
(§2) The release of p-nitrophenol from the substrate p-nitrophenylglycoside was measured spectrophotometrically in the presence and absence of test compound. Each assay included a known inhibitor of the enzyme as a standard. IC50 values were determined for compounds which inhibited the enzymes more than 50% at a 1 millimolar concentration.
To 100 ul 50 mM HEPES buffer, pH 7.4, in a microtiter plate, 20 ul test compound in DMSO (DMSO alone in control)and 40 ul (0.013 units) yeast α-glucosidase (Sigma) in HEPES buffer were added and pre-incubated at room temperature 15 minutes. 40 ul 1.25 mM p-nitrophenyl-α-D-gl-ucopyranoside (Sigma) in HEPES buffer, as substrate was added and the absorbance change at 405 nm was monitored in a Biotek EIA Autoreader. Absorption change was measured at 15 to 25 minutes (reaction was linear for at least 30 minutes). Each sample was tested in triplicate. IC50 values were determined from the linear portion of the log concentration vs percent inhibition curve obtained from a minimum of 3 points. Deoxynojirimycin was used as standard inhibitor.

Experiment [1] deals with almond β-glucosidase. As to the kind of experiment: β-Glucosidase inhibition assay, pH 4.8. As to the method: as §1, §2
To 100 ul 50 mM sodium citrate buffer, pH 4.8, in a microtiter plate, 20 ul test compound in DMSO (DMSO alone in control) and 20 ul (0.017 units) β-glucosidase (Sigma) in citrate buffer were added and pre-incubated at room temperature 15 minutes. 20 ul 2.50 mM p-nitrophenyl-β-D-glucopyranside in citrate buffer was added as substrate and incubated at room temperature minutes (reaction is linear for at least 30 minutes). 50 ul 0.4 M NaOH was added and the absorption change at 405 nm was determined utilizing a Biotek EIA Autoreader. Each sample was tested in triplicate. IC50 values were determined from the linear portion of the log concentration vs percent inhibition curve obtained from a minimum of 3 points. Castanospermine was used as standard inhibitor.

Experiment [2] has as its system almond β-glucosidase. Description: β-Glucosidase inhibition assay, pH 7.4. As to the method: as §1, §2
To 100 ul 50 mM HEPES buffer, pH 7.4, in a microtiter plate, 20 ul test compound in DMSO (DMSO alone in control) and 40 ul (0.136 units) β-glucosidase (Sigma) in HEPES buffer were added and pre-incubated at room temperature 15 minutes. 40 ul 1.25 mM p-nitrophenyl-β-D-glucopyranoside in HEPES buffer was added as substrate and the absorbance change at 405 nm was monitored utilizing a Biotek EIA Autoreader. Absorption change was measured at 15 to 25 minutes (reaction is linear for at least 30 minutes). Each sample was tested in triplicate. IC50 values were determined from the linear portion of the log concentration vs percent inhibition curve obtained from a minimum of 3 points. Castanospermine was used as standard inhibitor.

Experiment [3] addresses T2, ALPHA MANNOSIDASE (Canavalia ensiformis, UniProt C0HJB3).
T2 sequence (C0HJB3 1-981): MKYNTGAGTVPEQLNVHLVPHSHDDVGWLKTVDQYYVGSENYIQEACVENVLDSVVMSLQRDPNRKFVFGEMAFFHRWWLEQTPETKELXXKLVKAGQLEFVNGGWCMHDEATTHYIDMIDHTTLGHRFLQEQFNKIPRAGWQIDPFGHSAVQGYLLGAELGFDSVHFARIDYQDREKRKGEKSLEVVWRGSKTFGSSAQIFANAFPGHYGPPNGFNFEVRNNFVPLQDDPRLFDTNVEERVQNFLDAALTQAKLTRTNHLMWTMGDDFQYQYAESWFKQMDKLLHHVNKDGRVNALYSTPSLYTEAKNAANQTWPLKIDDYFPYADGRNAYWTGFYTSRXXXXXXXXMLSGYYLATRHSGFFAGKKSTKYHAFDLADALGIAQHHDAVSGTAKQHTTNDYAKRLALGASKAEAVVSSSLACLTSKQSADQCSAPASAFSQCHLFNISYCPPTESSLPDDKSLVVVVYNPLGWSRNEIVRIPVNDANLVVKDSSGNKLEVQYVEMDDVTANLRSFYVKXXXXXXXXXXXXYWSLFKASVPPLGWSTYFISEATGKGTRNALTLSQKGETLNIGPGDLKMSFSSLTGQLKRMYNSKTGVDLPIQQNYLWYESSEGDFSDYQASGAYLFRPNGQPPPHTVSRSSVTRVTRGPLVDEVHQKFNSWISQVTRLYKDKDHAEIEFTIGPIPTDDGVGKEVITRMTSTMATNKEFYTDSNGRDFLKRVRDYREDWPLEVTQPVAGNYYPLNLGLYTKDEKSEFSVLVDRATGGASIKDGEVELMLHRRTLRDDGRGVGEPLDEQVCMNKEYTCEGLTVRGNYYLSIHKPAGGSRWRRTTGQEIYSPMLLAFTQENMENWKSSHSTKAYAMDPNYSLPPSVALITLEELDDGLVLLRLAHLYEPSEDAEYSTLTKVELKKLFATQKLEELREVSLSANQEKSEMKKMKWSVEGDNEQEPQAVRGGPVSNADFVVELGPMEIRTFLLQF
As to the kind of experiment: Alpha mannosidase inhibition, pH 4.5. The settings on record: for inhibition at 1000 µM: @ 1 mM; for inhibition at 5000 µM: @ 5 mM.

Experiment [4] has as its target T2, ALPHA MANNOSIDASE
As to the kind of experiment: Alpha mannosidase inhibition, pH 7.4. The settings on record: for inhibition at 1000 µM: @ 1 mM; for inhibition at 5000 µM: @ 5 mM.

T1 sequence (P53341 whole entry): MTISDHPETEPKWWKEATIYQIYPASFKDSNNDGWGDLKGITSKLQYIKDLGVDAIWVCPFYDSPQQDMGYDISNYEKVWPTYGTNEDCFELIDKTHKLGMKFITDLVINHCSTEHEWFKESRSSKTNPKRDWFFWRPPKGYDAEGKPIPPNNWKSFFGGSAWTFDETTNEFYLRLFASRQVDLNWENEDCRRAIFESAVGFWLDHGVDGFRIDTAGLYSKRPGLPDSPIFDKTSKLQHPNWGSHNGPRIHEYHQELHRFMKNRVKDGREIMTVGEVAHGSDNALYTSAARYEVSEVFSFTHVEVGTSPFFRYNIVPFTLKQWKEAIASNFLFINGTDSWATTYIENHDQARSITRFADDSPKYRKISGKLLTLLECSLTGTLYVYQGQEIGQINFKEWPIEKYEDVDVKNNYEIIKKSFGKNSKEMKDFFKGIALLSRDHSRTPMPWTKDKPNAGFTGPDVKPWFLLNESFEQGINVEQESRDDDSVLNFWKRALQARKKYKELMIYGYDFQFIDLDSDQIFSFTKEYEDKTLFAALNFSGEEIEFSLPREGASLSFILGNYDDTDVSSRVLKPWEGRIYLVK

In the case of `OC[C@H]1NC[C@H](O)[C@@H](F)[C@@H]1O` [Compound 1, 1,3-dideoxy-3-fluoronojirimycin], the values for the inhibition at 1000 µM at yeast α-glucosidase, at ALPHA MANNOSIDASE [3] and against ALPHA MANNOSIDASE [4] were 26%, 11% and 10%, respectively. The inhibition at 5000 µM at yeast α-glucosidase amounted to 63%; against ALPHA MANNOSIDASE [3], 19%; on ALPHA MANNOSIDASE [4] it was 30%. The “BETA GLUCOSIDASE-pH 4.8 inhibition” value with almond β-glucosidase [1] (@ 1 mM) is on record as 4%; in the experiment with almond β-glucosidase [1] (@ 5 mM) it was 10%. For the same compound, the “BETA GLUCOSIDASE-pH 7.4 inhibition” value amounted to 3% in the experiment with almond β-glucosidase [2] (@ 1 mM) and 24% in the experiment with almond β-glucosidase [2] (@ 5 mM).

Consider `CCCCN1C[C@H](O)[C@@H](F)[C@H](O)[C@H]1CO` [Compound 2, N-butyl-1,3-dideoxy-3-fluoronojirimycin], for which the inhibition at 1000 µM on yeast α-glucosidase was 11%; against ALPHA MANNOSIDASE [3], 6%; on ALPHA MANNOSIDASE [4] it was 7%. The inhibition at 5000 µM on yeast α-glucosidase came to 18%; on ALPHA MANNOSIDASE [3], 5%; at ALPHA MANNOSIDASE [4], 11%. Further, the “BETA GLUCOSIDASE-pH 4.8 inhibition” value in the experiment on almond β-glucosidase [1] (@ 1 mM) is 8%; with almond β-glucosidase [1] (@ 5 mM) it was -10%. Further, the “BETA GLUCOSIDASE-pH 7.4 inhibition” value in the experiment with almond β-glucosidase [2] (@ 1 mM) was 0%; with almond β-glucosidase [2] (@ 5 mM), 2%.

A word on the inhibition: it is how much of the control response was suppressed.

These data come from US5130320A, “Glycosidase inhibiting 1,3-dideoxy-3-fluoronojirimycin” (Monsanto Company, priority 1991, dated 1992).
